Source: patent publication EP4748837A1, “AROMATIC AMIDE DERIVATIVE, AND PREPARATION METHOD THEREFOR AND USE THEREOF” (Zhejiang Hisun Pharmaceutical Co., Ltd., priority 2023, dated 2025)

Legend:
OVCAR-3 cells = assay: Inhibition of OVCAR-3 cell proliferation (CellTiter-Glo cell viability); assay type: cell-based; settings: Homo sapiens; OVCAR-3 cells (TP53 R248Q mutation), 72 hours culture with compound; read-out: IC50
Outline: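 OVCAR-3 cells (TP53 R248Q) in RPMI 1640 with 10% FBS were seeded at 1000 cells/well, grown overnight, then exposed to compound (final 1000 nM–0.015 nM) for 72 h at 37°C, 5% CO2. Viability was read by CellTiter-Glo luminescence. IC50 came from nonlinear regression of inhibition relative to 0.3% DMSO control.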

HT-29 cells = assay: Inhibition of HT-29 cell proliferation (CellTiter-Glo cell viability); assay type: cell-based; settings: Homo sapiens; HT-29 cells (TP53 R273H mutation), 120 hours culture with compound; read-out: IC50
Description: Influences of the compounds of the present invention on HT-29 cell proliferation were determined by the following method. HT-29 cells (containing TP53 R273H mutation) were purchased from the Cell Bank of Shanghai Institute of Biochemistry and Cell Biology, Chinese Academy of Sciences, and cultured in a McCOY's 5A culture medium containing 10% fetal bovine serum, 100 U penicillin and 100 µg/mL streptomycin. A cell viability was determined by a CellTiter-Glo® Luminescent Cell Viability Assay kit (Promega, article number G7573).
An experimental method was operated according to steps in the instruction of the kit, which was briefly described as follows: a test compound was dissolved in DMSO first to prepare a 10 mM stock solution, then the stock solution was diluted with the culture medium to prepare a test sample, and a final concentration of the compound was in a range of 1000 nM-0.015 nM. Cells in a logarithmic growth phase were inoculated into a 96-well cell culture plate at a density of 1000 cells per well, cultured in a 5% CO2 incubator at 37°C overnight, and then the test compound was added to continuously culture for 120 hours. After the culture was ended, 50 uL of CellTiter-Glo detection solution was added to each well, shaken for 5 minutes, and then allowed to stand for 10 minutes, and subsequently, a luminance value of each well of the sample was read by a microplate reader in a Luminescence mode. By comparing with the numerical value of a control group (0.3% DMSO), a percentage inhibition rate of the compound at each concentration point was calculated, and then nonlinear regression analysis was carried out based on concentration logarithm-inhibition rate of the compound in GraphPad Prism 5 software, so as to obtain an IC50 value of the compound for inhibiting the cell proliferation, which was as shown in Table 2. Table 2 IC50 data of the compounds of the present invention for inhibiting HT-29 cell proliferation

[1] = Pharmacokinetic testing in mice after intragastric administration; assay type: in vivo; settings: male, mouse, ICR mice, oral administration 10 mg/kg, plasma
Description: ICR mice were taken as test animals, and intragastrically administered with a control compound AMG650 and compounds 47 and 53 of the present invention, and then drug concentrations in plasma at different moments were determined by an LC/MS/MS method, so as to study pharmacokinetic characteristics of the compounds of the present invention in the mice.
Control compound AMG650, and Compounds 47 and 53.
ICR mice, male, 20-22 g, purchased from Vital River Laboratory Animal Technology Co., Ltd.
A proper amount of to-be-tested compound was weighed, proper amounts of DMA, 30% HS-15 and Saline were added in sequence, and the mixture was well mixed by ultrasonic vortex to prepare 1 mg/mL drug preparations respectively, wherein […]: 30% HS-15: Saline=5: 5: 90 (v: v: v).
ICR mice in each to-be-tested compound injection group (9 mice in each group) were fasted overnight and then intragastrically administered with the compound (PO, an administration dosage of the compound was 10 mg/kg and an administration volume of the compound was 10 mL/kg), and were fed 4 hours after administration.
0.25 hours, 0.5 hours, 1 hour, 2 hours, 4 hours, 6 hours, 8 hours and 24 hours before and after administration, about […] of blood was collected through an orbit, and a complete blood sample was placed in an EDTA-K2-containing anticoagulation tube. The collected blood samples were placed on ice, and plasma was centrifugally separated (centrifugation conditions: 1500 g, 10 minutes). The collected plasma was stored at -40°C - -20°C before analysis.
A content of the to-be-tested compound in the plasma of the mice after intragastric administration was determined by LC-MS/MS.

[2] = system: OVCAR-3 human ovarian adenocarcinoma tumor mass; assay: Pharmacodynamic testing in subcutaneous OVCAR-3 xenograft model; assay type: in vivo, BALB/c nude mice; settings: 35 days after administration, 8 mg/kg po QD, BALB/c nude mice
Description: Anti-tumor effects and Safeties of the Compounds 47 and 53 of the present invention in a BALB/c nude mouse animal model subjected to subcutaneous xenotransplantation of OVCAR-3 human ovarian adenocarcinoma tumor mass were evaluated.
BALB/c; nude mice, female, 6-7 weeks old, purchased from Jiangsu Gempharmatech Biotechnology Co., Ltd.
Mice in a solvent control group were given DMA: CrEL: 5%GS=10: 10: 80 (v: v: v). AMG650: a proper amount of AMG-650 was weigned, proper amounts of DMA, CrEL and 5% GS were added in sequence, and the mixture was well mixed by ultrasonic vortex to prepare 0.8 mg/mL drug preparations respectively, wherein DMA: CrEL : 5% GS=10: 10: 80 (v: v: v).
Compound 47: a proper amount of Compound 47 was added with proper amounts of DMA, CrEL and 5% GS in sequence, and evenly mixed by ultrasonic vortex to prepare 0.8 mg/mL drug preparations respectively, wherein DMA, CrEL and 5% GS=10: 10: 80 (v: v: v).
Compound 53: a proper amount of Compound 53 was weighed, proper amounts of DMA, CrEL and 5% GS were added in sequence, and the mixture was well mixed by ultrasonic vortex to prepare 0.8 mg/mL drug preparations respectively, wherein DMA: CrEL : 5% GS=10: 10: 80 (v: v: v).
An appropriate OVCAR-3 tumor-bearing animal was selected, and a 1 mm×1 mm×1 mm OVCAR-3 tumor mass was acquired aseptically and placed into normal saline for later use, which was used for subcutaneous tumor inoculation in a right side of back of the BALB/c nude mice.
About 1 mm×1 mm×1 mm OVCAR-3 tumor mass was subcutaneously inoculated in the right side of back of the female BALB/c nude mice. When an average tumor volume reached about 100-250 mm^3, the mice were randomly grouped based on tumor size, with 6 mice in each group.
Animals in each group were given the test compound once per day according to an animal weight at a fixed time every day by oral administration (po), the animals started to be administered with the test compound for the first time on the day of grouping for 35 consecutive days, and the animal weight was recorded every day.
The 1st group (G1) was a solvent control group; and
The 2nd-4th groups […] were orally administered with AMG-650, Compound 47 and Compound 53 at an administration dosage of 8 mg/kg once per day (QD).

recombinant human KIF18A = molecular target: T1, recombinant human KIF18A (Homo sapiens, UniProt Q8NI77); assay: Inhibition of KIF18A enzyme activity (ADP-Glo assay); assay type: biochemical; settings: recombinant human KIF18A 100 nM, ATP 60 µM, tubulin, paclitaxel; read-out: IC50
T1 construct: purchased GenScript
Description: Inhibition degrees of the compounds of the present invention on recombinant human KIF18A enzyme activity in vitro were determined by the following method. An ADP-Glo™ Kinase Assay kit (article number V9102) from Promega Company was used in this method. Detailed experimental operation referred to the instruction of the kit.
An experimental process was briefly described as follows: a test compound was dissolved in DMSO first to prepare a stock solution, then the stock solution was gradiently diluted with a reaction buffer A ([…], 0.01% Pluronic F-68), and a final concentration of the test compound in the reaction system was in a range of 10000 nM-0.15 nM; and a KIF18A protein and ATP working solution was prepared by using a reaction buffer B (15 mM Tris, pH 7.5, 10 mM MgCl2, 0.01% Pluronic F-68, 37.5 µg/ml tubulin, 1.25 µM paclitaxel). The reaction was carried out in a 384-well microplate. The test compound and the recombinant human KIF18A protein (final concentration of 100 nM, entrusted to GenScript for expression) were added into the wells and incubated at room temperature for 20 minutes, and subsequently, an ATP solution (component V915A from the ADP-Glo™ Kinase Assay kit, final concentration of 60 µM) was added to the reaction solution and the system was incubated at room temperature for 20 minutes. Subsequently, 5 µL of ADP-Glo Reagent was added to the reaction systemand the system was incubated at room temperature for 50 minutes. Then, 10 µL of Kinase Detection Reagent was added to the reaction system and the system was incubated at room temperature for 30 minutes. After the incubation was ended, a chemiluminiscence intensity value of each well was determined by a microplate reader in a Luminescence mode.

T1 sequence (Q8NI77 whole entry): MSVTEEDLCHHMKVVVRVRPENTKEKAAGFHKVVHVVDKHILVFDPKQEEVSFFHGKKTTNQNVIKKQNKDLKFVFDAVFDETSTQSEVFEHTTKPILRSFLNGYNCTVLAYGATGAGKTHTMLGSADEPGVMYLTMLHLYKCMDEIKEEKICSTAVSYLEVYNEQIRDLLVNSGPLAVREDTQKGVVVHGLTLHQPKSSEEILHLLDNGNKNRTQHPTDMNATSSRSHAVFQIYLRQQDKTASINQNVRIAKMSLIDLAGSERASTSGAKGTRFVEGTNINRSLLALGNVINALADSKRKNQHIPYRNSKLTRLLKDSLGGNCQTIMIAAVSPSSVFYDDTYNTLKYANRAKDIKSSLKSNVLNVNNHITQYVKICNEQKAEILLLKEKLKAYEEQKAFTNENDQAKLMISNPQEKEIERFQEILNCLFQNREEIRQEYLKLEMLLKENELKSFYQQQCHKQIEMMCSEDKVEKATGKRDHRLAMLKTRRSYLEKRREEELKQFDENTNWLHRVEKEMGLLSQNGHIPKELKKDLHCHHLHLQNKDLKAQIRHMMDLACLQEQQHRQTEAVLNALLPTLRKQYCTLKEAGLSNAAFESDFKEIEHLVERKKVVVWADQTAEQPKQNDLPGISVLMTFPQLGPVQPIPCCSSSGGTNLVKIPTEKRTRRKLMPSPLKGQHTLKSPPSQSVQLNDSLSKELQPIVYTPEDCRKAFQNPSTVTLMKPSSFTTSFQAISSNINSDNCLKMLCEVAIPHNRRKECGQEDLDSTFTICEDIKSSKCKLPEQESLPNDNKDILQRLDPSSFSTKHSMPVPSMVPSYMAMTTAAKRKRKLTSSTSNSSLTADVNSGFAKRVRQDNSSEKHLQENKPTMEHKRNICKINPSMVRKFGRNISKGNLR
T1 sequence (P68363 whole entry partner): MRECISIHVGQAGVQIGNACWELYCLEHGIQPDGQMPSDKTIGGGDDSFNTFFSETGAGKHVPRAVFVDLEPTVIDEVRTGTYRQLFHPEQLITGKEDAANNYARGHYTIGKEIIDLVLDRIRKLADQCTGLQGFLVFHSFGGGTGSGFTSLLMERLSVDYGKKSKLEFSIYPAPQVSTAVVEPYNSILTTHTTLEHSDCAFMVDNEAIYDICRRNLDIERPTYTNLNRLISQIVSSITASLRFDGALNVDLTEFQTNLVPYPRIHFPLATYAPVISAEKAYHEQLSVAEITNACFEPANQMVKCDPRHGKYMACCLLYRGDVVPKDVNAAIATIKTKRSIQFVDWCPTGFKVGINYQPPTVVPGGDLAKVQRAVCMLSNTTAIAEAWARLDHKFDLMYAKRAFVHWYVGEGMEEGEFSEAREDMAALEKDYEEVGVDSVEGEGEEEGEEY
T1 sequence (Q9BVA1 whole entry partner): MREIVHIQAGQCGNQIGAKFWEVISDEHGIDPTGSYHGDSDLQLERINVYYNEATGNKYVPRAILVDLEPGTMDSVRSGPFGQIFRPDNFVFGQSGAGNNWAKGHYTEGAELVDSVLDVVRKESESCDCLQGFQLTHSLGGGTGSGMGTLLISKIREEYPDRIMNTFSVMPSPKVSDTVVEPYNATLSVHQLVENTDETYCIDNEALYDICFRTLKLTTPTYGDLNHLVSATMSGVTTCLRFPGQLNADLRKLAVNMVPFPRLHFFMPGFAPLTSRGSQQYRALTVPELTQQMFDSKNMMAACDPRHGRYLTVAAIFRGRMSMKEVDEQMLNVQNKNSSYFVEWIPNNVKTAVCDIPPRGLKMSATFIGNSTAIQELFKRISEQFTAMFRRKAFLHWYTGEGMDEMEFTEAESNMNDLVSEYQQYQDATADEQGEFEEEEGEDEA

Row | IC50 (OVCAR-3 cells) [nM] | IC50 (HT-29 cells) [nM] | AUC(0-inf) ([1]; read-out: Area under the curve AUC0-∞) [ng·h/mL] | half-life ([1]; read-out: Half-life period T1/2 (converted)) [h] | Cmax ([1]; read-out: Plasma concentration Cmax) [ng/mL] | IC50 (recombinant human KIF18A) [nM] | Compound | TGI% [2] [%] | Tumor volume (x±S) ([2]; mean value ± standard error, in mm³ (unit assumed))
1 | 64.5 | 61.7 | 52500 | 9.64 | 3050 | – | Cc1cc(NC(=O)c2ccc(NS(=O)(=O)CCO)cc2N2CCC3(CC2)CC3)nc(N2CCC(F)(F)CC2)n1 [AMG 650, reference compound] | 68.1 | 313±76
2 | 2.5 | 3.9 | – | – | – | 62.4 | CCS(=O)(=O)Nc1ccc(C(=O)Nc2ccc(-c3cccnn3)c(N3CCC(F)(F)CC3)c2)c(N2CCC3(CC2)CC3)c1 [Example 12, N-(3-(4,4-difluoropiperidin-1-yl)-4-(pyridazin-3-yl)phenyl)-4-(ethylsulfonamido)-2-(6-azaspiro[2.5]octan-6-yl)benzamide] | – | –
3 | 12.4 | 8.4 | – | – | – | 59.1 | CCS(=O)(=O)Nc1ccc(C(=O)Nc2ccc(-n3cncn3)c(N3CCC(F)(F)CC3)c2)c(N2CCC3(CC2)CC3)c1 [Example 28, N-(3-(4,4-difluoropiperidin-1-yl)-4-(1H-1,2,4-triazol-1-yl)phenyl)-4-(ethylsulfonamido)-2-(6-azaspiro[2.5]octan-6-yl)benz amide] | – | –
4 | 6.2 | 4.6 | – | – | – | 147 | O=C(Nc1ccc(-c2ccnnc2)c(N2CCC(F)(F)CC2)c1)c1ccc(NS(=O)(=O)C2CC2)cc1N1CCC2(CC1)CC2 [Example 16, 4-(cyclopropanesulfonamido)-N-(3-(4,4-difluoropiperidin-1-yl)-4-(pyridazin-4-yl)phenyl)-2-(6-azaspiro[2.5]octan-6-yl)b enzamide] | – | –
5 | 3.2 | 3.3 | – | – | – | 121 | O=C(Nc1ccc(-c2ncccn2)c(N2CCC(F)(F)CC2)c1)c1ccc(NS(=O)(=O)C2CC2)cc1N1CCC2(CC1)CC2 [Example 17, 4-(cyclopropanesulfonamido)-N-(3-(4,4-difluoropiperidin-1-yl)-4-(pyrimidin-2-yl)phenyl)-2-(6-azaspiro[2.5]octan-6-yl)b enzamide] | – | –
6 | 15.9 | 8.3 | – | – | – | 134 | CCS(=O)(=O)Nc1ccc(C(=O)Nc2ccc(-n3ccnn3)c(C3CCC(F)(F)CC3)c2)c(N2CCC3(CC2)CC3)c1 [Example 31, N-(3-(4,4-difluorocyclohexyl)-4-(1H-1,2,3-triazol-1-yl)pheny 1)-4-(ethylsulfonamido)-2-(6-azaspiro[2.5]octan-6-yl)benzamide] | – | –
7 | 6.2 | 1.8 | – | – | – | 155 | O=C(Nc1ccc(-c2nnco2)c(N2CCC(F)(F)CC2)c1)c1ccc(NS(=O)(=O)C2CC2)cc1N1CCC2(CC1)CC2 [Example 41, 4-(cyclopropanesulfonamido)-N-(3-(4,4-difluoropiperidin-1-yl)-4-(1,3,4-oxadiazol-2-yl)phenyl)-2-(6-azaspiro[2.5]octan-6-yl)benzamide] | – | –
8 | 2.2 | 1.5 | – | – | – | 91.7 | [2H]C([2H])([2H])Oc1ccc(NC(=O)c2ccc(NS(=O)(=O)CCO)cc2N2CCC3(CC2)CC3)cc1N1CCC(F)(F)CC1 [Example 58, N-(3-(4,4-difluoropiperidin-1-yl)-4-(methoxy-d3)phenyl)-4-( (2-hydroxyethyl)sulfonamido) -2-(6-azaspiro[2.5]octan-6-yl) benzamide] | – | –
